Measured values published in patent publication US20260144815A1, “BLOOD COAGULATION TIME SHORTENING AGENT FOR BLOOD SPECIMEN DEFICIENT IN COAGULATION FACTOR XII” (SEKISUI MEDICAL CO., LTD., priority 2022, published 2026).

Tested on: FXII-deficient specimens
Test: Test 2: APTT coagulation time measurement of FXII-deficient specimens, zinc chloride basic prescription
Format: biochemical, human
Conditions: metal salt used instead of zinc chloride in combination with the polymer
Excerpt: The following specimens were used: • FXII-deficient specimens (specimens derived from FXII-deficient patients, N=3).
The prescription was the same as that in the test 1 except that copper sulfate pentahydrate in the first reagent (R1) was changed to zinc chloride.
In the control, LIPIDURE (R) was not added.
Test reagents 5-1 to 5-3: zinc chloride in R1 of the basic prescription was changed to the metal salt compound shown in Table 5, and LIPIDURE (R)-BL205 was further added. As the control, the test reagent 4-1 was used.
R1 and R2 were prepared by the same procedure as in the test 1, the coagulation time (APTT) was measured, and the variation rate (%) of APTT with the test reagent with respect to the control was determined.

For O.O.O.O.[Cl][In]([Cl])[Cl] [indium (III) chloride tetrahydrate], the “coagulation time of FXII-deficient specimens” value was “further shortened”.

O.O.O.O.[Cl][Mn][Cl] [manganese (II) chloride tetrahydrate] was tested, and the “coagulation time of FXII-deficient specimens” value was “further shortened”.
